Read-outs that look alike come from different tables or passages of the source.
Legend:
[1] = system: lentiviral pseudoparticles carrying SARS-CoV-2 Beta (B.1.351) spike, Caco-2 cells; format: cell-based; conditions: Fig. 5c, […]
[2] = biological target: cellular TMPRSS2 activity, Caco-2 cells (Homo sapiens, UniProt O15393); conditions: for cellular protease activity on Caco-2 cells, Mean (Fig. 4a): normalized, 0 nM = 100
Protocol: In total, 10,000 Caco-2 cells (ATCC) in 100 µL EMEM medium supplemented with 10% FBS, 100 U/mL penicillin, […] streptomycin, and 2 mM glutamine (all Invitrogen, Germany) were seeded per well in a 96-well plate and incubated at 37 °C for 4 days until full confluency of the cells. The cells were washed two times with PBS and EMEM medium without FBS was added. […] The fluorescence intensity was measured as described above. In all, 20,000 HEK293T cells (ATCC) were seeded in 100 µL DMEM supplemented with 10% FBS, 100 U/mL penicillin, […] streptomycin, and 2 mM glutamine. […] After 14 h, transfection mix was removed from the cells and 80 µL fresh medium without FBS and 10 µL inhibitors were added (final concentration 50 µM). […] Fluorescence intensity was measured after 2 h at 37 °C as described above.

TMPRSS2 = TMPRSS2 (Homo sapiens, UniProt O15393)
Sequence of TMPRSS2 (O15393 whole entry): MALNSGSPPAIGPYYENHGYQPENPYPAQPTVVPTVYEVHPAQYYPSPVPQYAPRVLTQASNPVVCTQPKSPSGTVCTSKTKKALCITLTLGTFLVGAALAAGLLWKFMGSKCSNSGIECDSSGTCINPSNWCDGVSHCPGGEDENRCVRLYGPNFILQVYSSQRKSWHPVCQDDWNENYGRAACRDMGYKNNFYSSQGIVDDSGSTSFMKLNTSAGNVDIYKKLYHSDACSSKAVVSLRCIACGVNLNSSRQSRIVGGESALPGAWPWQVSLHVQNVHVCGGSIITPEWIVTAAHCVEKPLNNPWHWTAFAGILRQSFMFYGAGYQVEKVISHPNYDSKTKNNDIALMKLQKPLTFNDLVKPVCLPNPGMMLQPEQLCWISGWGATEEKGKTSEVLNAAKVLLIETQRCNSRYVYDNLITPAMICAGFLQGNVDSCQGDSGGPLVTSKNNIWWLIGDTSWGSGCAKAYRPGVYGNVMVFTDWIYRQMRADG

[3] = system: lentiviral pseudoparticles carrying SARS-CoV-2 Wuhan-Hu-1 spike, Caco-2 cells; format: cell-based

Sequence of cellular TMPRSS2 activity, Caco-2 cells (O15393 whole entry): as above

**Q.** Which “SARS-CoV-2 spike driven entry, Mean (0 nM = 100)” value (shortened to “SARS-CoV-2 spike driven entry”) ([1]; compound 3.2 nM) does the source give for ace-Arg-Pro-Arg-kbt [Compound 2] here?
**A.** 86.789

**Q.** What about the “SARS-CoV-2 spike driven entry” value ([1]; compound 16 nM) of the same substance?
**A.** 76.3745

**Q.** What about the “SARS-CoV-2 spike driven entry” value ([1]; compound 80 nM) of the same substance?
**A.** 81.347

**Q.** And the “SARS-CoV-2 spike driven entry” value ([1]; compound 400 nM)?
**A.** 58.1085

**Q.** And the “SARS-CoV-2 spike driven entry” value ([1]; compound 2000 nM)?
**A.** 24.7225

**Q.** And the “SARS-CoV-2 spike driven entry” value ([1]; compound 10000 nM)?
**A.** 3.543

**Q.** What about the “SARS-CoV-2 spike driven entry” value ([1]; compound 50000 nM) of the same substance?
**A.** 0.923

**Q.** And the “cellular protease activity on Caco-2 cells, Mean (Fig. 4a)” value (“cellular protease activity” for short) ([2]; 0.1 nM)?
**A.** 109.802

**Q.** And the “cellular protease activity” value ([2]; 1 nM)?
**A.** 82.1942

**Q.** And the “cellular protease activity” value ([2]; 10 nM)?
**A.** 70.6835

**Q.** And the “cellular protease activity” value ([2]; 100 nM)?
**A.** 32.9137

**Q.** And the “cellular protease activity” value ([2]; 1000 nM)?
**A.** -3.058

**Q.** What about the “cellular protease activity” value ([2]; 10000 nM) of the same substance?
**A.** 1.349

**Q.** And the “cellular protease activity” value ([2]; 100000 nM)?
**A.** 2.158

**Q.** And the IC50 ([2]; read-out: IC50 Caco2, cell-mediated proteolysis of Boc-Gln-Ala-Arg-AMC, 30 min preincubation)?
**A.** 32 nM

**Q.** What about the “increase in Ki values against TMPRSS2” value (TMPRSS2; incubation in human serum during the course of 10 days) of the same substance?
**A.** 1.4–1.8 fold

**Q.** What about the “TMPRSS2 activity, Mean (0 nM = 100)” value (TMPRSS2; inhibitor 0.0167 nM, 0 min in serum) of the same substance?
**A.** 106.1220

**Q.** What about the “TMPRSS2 activity, Mean (0 nM = 100)” value (TMPRSS2; inhibitor 0.0167 nM, 30 min in serum) of the same substance?
**A.** 99.5878

**Q.** What about the “TMPRSS2 activity, Mean (0 nM = 100)” value (TMPRSS2; inhibitor 0.0167 nM, 60 min in serum) of the same substance?
**A.** 97.9753

**Q.** What about the “TMPRSS2 activity, Mean (0 nM = 100)” value (TMPRSS2; inhibitor 0.0167 nM, 120 min in serum) of the same substance?
**A.** 103.1067

**Q.** And the “TMPRSS2 activity, Mean (0 nM = 100)” value (TMPRSS2; inhibitor 0.0167 nM, 24 h in serum)?
**A.** 102.6336

**Q.** And the “TMPRSS2 activity, Mean (0 nM = 100)” value (TMPRSS2; inhibitor 0.0167 nM, 10 d in serum)?
**A.** 99.7199

**Q.** What about the “TMPRSS2 activity, Mean (0 nM = 100)” value (TMPRSS2; inhibitor 0.0167 nM, positive ctrl) of the same substance?
**A.** 99.3394

**Q.** What about the “TMPRSS2 activity, Mean (0 nM = 100)” value (TMPRSS2; inhibitor 0.167 nM, 0 min in serum) of the same substance?
**A.** 105.3800

**Q.** What about the “TMPRSS2 activity, Mean (0 nM = 100)” value (TMPRSS2; inhibitor 0.167 nM, 30 min in serum) of the same substance?
**A.** 98.0548

**Q.** What about the “TMPRSS2 activity, Mean (0 nM = 100)” value (TMPRSS2; inhibitor 0.167 nM, 60 min in serum) of the same substance?
**A.** 98.4409

**Q.** What about the “TMPRSS2 activity, Mean (0 nM = 100)” value (TMPRSS2; inhibitor 0.167 nM, 120 min in serum) of the same substance?
**A.** 101.9976

**Q.** What about the “TMPRSS2 activity, Mean (0 nM = 100)” value (TMPRSS2; inhibitor 0.167 nM, 24 h in serum) of the same substance?
**A.** 99.8791

**Q.** What about the “TMPRSS2 activity, Mean (0 nM = 100)” value (TMPRSS2; inhibitor 0.167 nM, 10 d in serum) of the same substance?
**A.** 99.7654

**Q.** What about the “TMPRSS2 activity, Mean (0 nM = 100)” value (TMPRSS2; inhibitor 0.167 nM, positive ctrl) of the same substance?
**A.** 97.2281

**Q.** What about the “TMPRSS2 activity, Mean (0 nM = 100)” value (TMPRSS2; inhibitor 1.665 nM, 0 min in serum) of the same substance?
**A.** 108.2341

**Q.** And the “TMPRSS2 activity, Mean (0 nM = 100)” value (TMPRSS2; inhibitor 1.665 nM, 30 min in serum)?
**A.** 98.1707

**Q.** And the “TMPRSS2 activity, Mean (0 nM = 100)” value (TMPRSS2; inhibitor 1.665 nM, 60 min in serum)?
**A.** 94.8463

**Q.** And the “TMPRSS2 activity, Mean (0 nM = 100)” value (TMPRSS2; inhibitor 1.665 nM, 120 min in serum)?
**A.** 98.7901

**Q.** What about the “TMPRSS2 activity, Mean (0 nM = 100)” value (TMPRSS2; inhibitor 1.665 nM, 24 h in serum) of the same substance?
**A.** 99.7583

**Q.** And the “TMPRSS2 activity, Mean (0 nM = 100)” value (TMPRSS2; inhibitor 1.665 nM, 10 d in serum)?
**A.** 103.5823

**Q.** What about the “TMPRSS2 activity, Mean (0 nM = 100)” value (TMPRSS2; inhibitor 1.665 nM, positive ctrl) of the same substance?
**A.** 91.5051

**Q.** And the “TMPRSS2 activity, Mean (0 nM = 100)” value (TMPRSS2; inhibitor 16.65 nM, 0 min in serum)?
**A.** 98.1805

**Q.** And the “TMPRSS2 activity, Mean (0 nM = 100)” value (TMPRSS2; inhibitor 16.65 nM, 30 min in serum)?
**A.** 91.6522

**Q.** What about the “TMPRSS2 activity, Mean (0 nM = 100)” value (TMPRSS2; inhibitor 16.65 nM, 60 min in serum) of the same substance?
**A.** 87.0886

**Q.** What about the “TMPRSS2 activity, Mean (0 nM = 100)” value (TMPRSS2; inhibitor 16.65 nM, 120 min in serum) of the same substance?
**A.** 89.1234

**Q.** And the “TMPRSS2 activity, Mean (0 nM = 100)” value (TMPRSS2; inhibitor 16.65 nM, 24 h in serum)?
**A.** 89.0776

**Q.** What about the “TMPRSS2 activity, Mean (0 nM = 100)” value (TMPRSS2; inhibitor 16.65 nM, 10 d in serum) of the same substance?
**A.** 93.1155

**Q.** And the “TMPRSS2 activity, Mean (0 nM = 100)” value (TMPRSS2; inhibitor 16.65 nM, positive ctrl)?
**A.** 59.7913

**Q.** What about the “TMPRSS2 activity, Mean (0 nM = 100)” value (TMPRSS2; inhibitor 166.5 nM, 0 min in serum) of the same substance?
**A.** 41.7125

**Q.** And the “TMPRSS2 activity, Mean (0 nM = 100)” value (TMPRSS2; inhibitor 166.5 nM, 30 min in serum)?
**A.** 36.7343

**Q.** What about the “TMPRSS2 activity, Mean (0 nM = 100)” value (TMPRSS2; inhibitor 166.5 nM, 60 min in serum) of the same substance?
**A.** 32.5087

**Q.** And the “TMPRSS2 activity, Mean (0 nM = 100)” value (TMPRSS2; inhibitor 166.5 nM, 120 min in serum)?
**A.** 34.3878

**Q.** What about the “TMPRSS2 activity, Mean (0 nM = 100)” value (TMPRSS2; inhibitor 166.5 nM, 24 h in serum) of the same substance?
**A.** 36.8130

**Q.** What about the “TMPRSS2 activity, Mean (0 nM = 100)” value (TMPRSS2; inhibitor 166.5 nM, 10 d in serum) of the same substance?
**A.** 52.5195

**Q.** And the “TMPRSS2 activity, Mean (0 nM = 100)” value (TMPRSS2; inhibitor 166.5 nM, positive ctrl)?
**A.** 21.7311

**Q.** And the “TMPRSS2 activity, Mean (0 nM = 100)” value (TMPRSS2; inhibitor 1665 nM, 0 min in serum)?
**A.** 8.0842

**Q.** What about the “TMPRSS2 activity, Mean (0 nM = 100)” value (TMPRSS2; inhibitor 1665 nM, 30 min in serum) of the same substance?
**A.** 8.9275

**Q.** And the “TMPRSS2 activity, Mean (0 nM = 100)” value (TMPRSS2; inhibitor 1665 nM, 60 min in serum)?
**A.** 5.1862

**Q.** What about the “TMPRSS2 activity, Mean (0 nM = 100)” value (TMPRSS2; inhibitor 1665 nM, 120 min in serum) of the same substance?
**A.** 6.5663

**Q.** And the “TMPRSS2 activity, Mean (0 nM = 100)” value (TMPRSS2; inhibitor 1665 nM, 24 h in serum)?
**A.** 7.0802

**Q.** What about the “TMPRSS2 activity, Mean (0 nM = 100)” value (TMPRSS2; inhibitor 1665 nM, 10 d in serum) of the same substance?
**A.** 12.0706

**Q.** What about the “TMPRSS2 activity, Mean (0 nM = 100)” value (TMPRSS2; inhibitor 1665 nM, positive ctrl) of the same substance?
**A.** 5.8217

**Q.** What about the “SARS-CoV-2 spike driven entry” value [3] of the same substance?
**A.** 93.4665

**Q.** And the IC50 ([3]; Caco-2 cells, luciferase 2 days post transduction, read-out: IC50 pseudotyped lentivirus Wuhan-Hu-1)?
**A.** 1620 nM

**Q.** What about the “SARS-CoV-2 spike driven entry” value ([3]; Fig. 5a, compound 160 nM, […]) of the same substance?
**A.** 93.5815

**Q.** What about the “SARS-CoV-2 spike driven entry” value ([3]; Fig. 5a, compound 800 nM, […]) of the same substance?
**A.** 73.183

**Q.** What about the “SARS-CoV-2 spike driven entry” value ([3]; Fig. 5a, compound 4000 nM, […]) of the same substance?
**A.** 22.027

**Q.** What about the “SARS-CoV-2 spike driven entry” value ([3]; Fig. 5a, compound 20000 nM, […]) of the same substance?
**A.** 3.879

**Q.** And the “SARS-CoV-2 spike driven entry” value ([3]; Fig. 5a, compound 100000 nM, […])?
**A.** 2.5725

From PMC9270327 (Communications Biology, 2022)
